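A five-concentration, 48-hour dose response in 96-well plates underlies each endpoint, interpolated linearly between surrounding concentrations. TGI is the concentration that stops growth completely.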
Legend:
Test in all cases: growth of human tumour cells (NCI), 48 h
UACC-257 melanoma = test system: UACC-257 melanoma
MOLT-4 leukemia = test system: MOLT-4 leukemia
UACC-62 melanoma = test system: UACC-62 melanoma
MCF7 breast = test system: MCF7 breast
DU-145 prostate = test system: DU-145 prostate
SK-MEL-28 melanoma = test system: SK-MEL-28 melanoma
SK-MEL-5 melanoma = test system: SK-MEL-5 melanoma
A498 renal = test system: A498 renal
SF-268 CNS = test system: SF-268 CNS
BT-549 breast = test system: BT-549 breast
T-47D breast = test system: T-47D breast
SW-620 colon = test system: SW-620 colon
MDA-MB-231 breast = test system: MDA-MB-231 breast
OVCAR-5 ovarian = test system: OVCAR-5 ovarian
MDA-MB-435 = test system: MDA-MB-435
HOP-92 NSCLC = test system: HOP-92 NSCLC
HS 578T breast = test system: HS 578T breast
CCRF-CEM leukemia = test system: CCRF-CEM leukemia
SF-539 CNS = test system: SF-539 CNS
SF-295 CNS = test system: SF-295 CNS
NCI-H522 lung = test system: NCI-H522 lung
NCI-H23 lung = test system: NCI-H23 lung
HL-60(TB) leukemia = test system: HL-60(TB) leukemia
HCC-2998 colon = test system: HCC-2998 colon
HOP-62 NSCLC = test system: HOP-62 NSCLC
MALME-3M melanoma = test system: MALME-3M melanoma
TK-10 renal = test system: TK-10 renal
NCI/ADR-RES ovarian = test system: NCI/ADR-RES ovarian
SR leukemia = test system: SR leukemia
HCT-116 colon = test system: HCT-116 colon
786-0 renal = test system: 786-0 renal
NCI-H226 lung = test system: NCI-H226 lung
HCT-15 colon = test system: HCT-15 colon
SN12C renal = test system: SN12C renal
LOX IMVI melanoma = test system: LOX IMVI melanoma
HT29 colon = test system: HT29 colon
KM12 colon = test system: KM12 colon
MDA-N = test system: MDA-N
ACHN renal = test system: ACHN renal
SK-MEL-2 melanoma = test system: SK-MEL-2 melanoma
SNB-75 CNS = test system: SNB-75 CNS
RPMI-8226 leukemia = test system: RPMI-8226 leukemia
M14 melanoma = test system: M14 melanoma
RXF 393 renal = test system: RXF 393 renal
CAKI-1 renal = test system: CAKI-1 renal
A549 NSCLC = test system: A549 NSCLC
SK-OV-3 ovarian = test system: SK-OV-3 ovarian
EKVX NSCLC = test system: EKVX NSCLC
OVCAR-8 ovarian = test system: OVCAR-8 ovarian
PC-3 prostate = test system: PC-3 prostate
UO-31 renal = test system: UO-31 renal
OVCAR-3 ovarian = test system: OVCAR-3 ovarian
OVCAR-4 ovarian = test system: OVCAR-4 ovarian
IGROV1 ovarian = test system: IGROV1 ovarian
K-562 leukemia = test system: K-562 leukemia
COLO 205 colon = test system: COLO 205 colon
NCI-H460 lung = test system: NCI-H460 lung
U251 CNS = test system: U251 CNS
SNB-19 CNS = test system: SNB-19 CNS

CN(C)CCNC(=O)c1cccc2nc3c(nc12)-c1ccccc1C3=O
TGI (UACC-257 melanoma): 34.6 µM | TGI (MOLT-4 leukemia): 7.52 µM | TGI (UACC-62 melanoma): 60.4 µM | TGI (MCF7 breast): 24.3 µM | TGI (DU-145 prostate): 70 µM | TGI (SK-MEL-28 melanoma): 37.3 µM | TGI (SK-MEL-5 melanoma): 25.1 µM | TGI (A498 renal): 29.5 µM | TGI (SF-268 CNS): 32.2 µM | TGI (BT-549 breast): 29.7 µM | TGI (T-47D breast): 37.4 µM | TGI (SW-620 colon): 39.4 µM | TGI (MDA-MB-231 breast): 23.8 µM | TGI (OVCAR-5 ovarian): 90.1 µM | TGI (MDA-MB-435): 32.1 µM | TGI (HOP-92 NSCLC): 40.9 µM | TGI (HS 578T breast): 44 µM | TGI (CCRF-CEM leukemia): 17.4 µM | TGI (SF-539 CNS): 27 µM | TGI (SF-295 CNS): 39 µM | TGI (NCI-H522 lung): 30.7 µM | TGI (NCI-H23 lung): 35.4 µM | TGI (HL-60(TB) leukemia): 22.7 µM | TGI (HCC-2998 colon): 38.1 µM | TGI (HOP-62 NSCLC): 16.6 µM | TGI (MALME-3M melanoma): 24.2 µM | TGI (TK-10 renal): 56.6 µM | TGI (NCI/ADR-RES ovarian): 39.3 µM | TGI (SR leukemia): > 21.5 µM | TGI (HCT-116 colon): 88.3 µM | TGI (786-0 renal): 30.2 µM | TGI (NCI-H226 lung): 39.6 µM | TGI (HCT-15 colon): 41.4 µM | TGI (SN12C renal): 28.9 µM | TGI (LOX IMVI melanoma): 12.7 µM | TGI (HT29 colon): 22.8 µM | TGI (KM12 colon): 33.2 µM | TGI (MDA-N): 25.7 µM | TGI (ACHN renal): 32.1 µM | TGI (SK-MEL-2 melanoma): 32.4 µM | TGI (SNB-75 CNS): 31 µM | TGI (RPMI-8226 leukemia): 33.6 µM | TGI (M14 melanoma): 31.9 µM | TGI (RXF 393 renal): 34.4 µM | TGI (CAKI-1 renal): 66.4 µM | TGI (A549 NSCLC): 37.7 µM | TGI (SK-OV-3 ovarian): 97 µM | TGI (EKVX NSCLC): 48.6 µM | TGI (OVCAR-8 ovarian): 62.7 µM | TGI (PC-3 prostate): 35 µM | TGI (UO-31 renal): 39.1 µM | TGI (OVCAR-3 ovarian): 43.2 µM | TGI (OVCAR-4 ovarian): 58.2 µM | TGI (IGROV1 ovarian): > 71.1 µM | TGI (K-562 leukemia): > 100 µM | TGI (COLO 205 colon): 58.5 µM | TGI (NCI-H460 lung): 18.9 µM | TGI (U251 CNS): 45.6 µM | TGI (SNB-19 CNS): 47.6 µM
